Results as given in paper PMC12301034, “Design and Synthesis of Boronic Chalcones with Dual Anticancer and Anti-Inflammatory Activity” (Molecules, 2025).
“Also recorded” adds a separate entry of the source.

What was measured:
NOK-si cells = test: MTT cytotoxicity assay on NOK-si normal oral keratinocytes; type: cell-based; details: 24 h incubation
Source text: (§1) The SCC-25 (ATCC® CRL-1628™), Detroit-562 (ATCC® CCL-138™), and THP-1 (ATCC® TIB-202™) cells were purchased from Rio de Janeiro Cell Bank (Duque de Caxias, Brazil), and NOK-si was kindly provided by Prof. Carlos Rossa from the School of Dentistry—UNESP. All the cells were cultivated according to standard conditions. Human colorectal adenocarcinoma HCT116 cell lines (ATCC® CCL-247™) expressing p53 and its p53-null isogenic derivative (HCT116 p53^−/−) were provided by B. Vogelstein (The Johns Hopkins Kimmel Cancer Center, Baltimore, MD, USA).
Cells (NOK-si, SCC-25, and Detroit-562) were grown in a DMEM medium (Dulbecco’s Modified Eagle Medium), supplemented according to the needs of each lineage, as recommended by its cell banks, with 2 mM L-glutamine, 10% or 20% fetal bovine serum (FBS), 1% antibiotic–antimycotic solution (5 mg/mL penicillin, 5 mg/mL streptomycin, and 10 mg/mL neomycin), 4.5 g/L of glucose, and 3.7 g/L of sodium bicarbonate (NaHCO3). All cell lines were cultured in flasks at 37 °C in 5% carbon dioxide (CO2) and 95% of relative humidity. The assays were conducted between the third- and the seventh-cell passage, with sub-cultures every 3–4 days to maintain exponential growth. The cell viability was checked using the trypan blue dye exclusion assay for all experiments, where over 95% of the cells were viable at the beginning of the tests. NOK-si, SCC-25, and Detroit-562 were initially thawed and cultured in 25 cm^2 cell culture flasks. Cell growth was monitored using a microscope, and the culture medium was changed periodically. Upon reaching confluency, cell dissociation was achieved by adding 5 mL of trypsin (Sigma-Aldrich, St Louis, MO, USA) and incubating the bottles in a CO2 incubator for 10 min. Subsequently, the cells were transferred to 15 mL Falcon tubes and centrifuged at 2000 rpm for 10 min. Cell counting was performed using a Countess II FL automated cell counter (ThermoFischer, Waltham, MA, USA). The cells were seeded at a density of 30,000 cells per well in 96-well plates. The plates were then incubated at 37 °C in 5% CO2 for 24 h. Following this, test compounds were incubated for another 24 h at 10 different concentrations: 50, 25, 12.5, 6.25, 3.12, 1.56, 0.78, 0.39, 0.19, and 0.097 µg/mL. After the specified time, MTT reagent (3 mg/mL) (Sigma-Aldrich, St Louis, MO, USA) dissolved in phenol-free RPMI 1640 was added and incubated for 4 h. The formed MTT crystals were solubilized using 2-propanol P.A. (Sigma-Aldrich, St Louis, MO, USA) with agitation. Absorbance was read at 562 nm using an EZ Read 400 microplate reader (Biochrom, Cambridge, UK) and ADAP 2.0 Biochrom software (version 2.0). IC50 values and graphs were calculated using Excel and Prism software (version 10.4.1). The MTT assay results were evaluated for normality using the Shapiro–Wilk test, followed by one-way ANOVA with Tukey’s post hoc test at a significance level of 5%.

Detroit-562 cells = test: MTT cytotoxicity assay on Detroit-562 cells; type: cell-based
Source text: as §1
Cells (NOK-si, SCC-25, and Detroit-562) were grown in a DMEM medium (Dulbecco’s Modified Eagle Medium), supplemented according to the needs of each lineage, as recommended by its cell banks, with 2 mM L-glutamine, 10% or 20% fetal bovine serum (FBS), 1% antibiotic–antimycotic solution (5 mg/mL penicillin, 5 mg/mL streptomycin, and 10 mg/mL neomycin), 4.5 g/L of glucose, and 3.7 g/L of sodium bicarbonate (NaHCO3). All cell lines were cultured in flasks at 37 °C in 5% carbon dioxide (CO2) and 95% of relative humidity. The assays were conducted between the third- and the seventh-cell passage, with sub-cultures every 3–4 days to maintain exponential growth. The cell viability was checked using the trypan blue dye exclusion assay for all experiments, where over 95% of the cells were viable at the beginning of the tests. NOK-si, SCC-25, and Detroit-562 were initially thawed and cultured in 25 cm^2 cell culture flasks. Cell growth was monitored using a microscope, and the culture medium was changed periodically. […] Absorbance was read at 562 nm using an EZ Read 400 microplate reader (Biochrom, Cambridge, UK) and ADAP 2.0 Biochrom software (version 2.0). IC50 values and graphs were calculated using Excel and Prism software (version 10.4.1). The MTT assay results were evaluated for normality using the Shapiro–Wilk test, followed by one-way ANOVA with Tukey’s post hoc test at a significance level of 5%.

SCC-25 cells [1] = test: Annexin V-FITC/PI apoptosis/necrosis assay; type: cell-based, human; details: SCC-25, 44.3 μM, 24 h
Method: For the assessment of the type of cell death, the treatment groups were 44.3 μM, 22.1 μM, and 9.45 μM compound 5, and the negative control without any treatment (only DMEM medium). Then, after 24 h of treatment, cell suspensions of 1 × 10^6 mL^–^1 (SCC-25) of each experimental condition were labeled, and the assay was performed according to the manufacturer’s protocol with the FITC Annexin V/Dead Cell Apoptosis Kit (Life Technologies, Eugene, OR, USA). Annexin V-FITC conjugated (510 nm) and propidium iodide (PI, 610 nm) fluorescence intensity were detected by automatic reading with the Countess™ II FL Automated Cell Counter (Life Technologies, Carlsbad, CA, USA). The cell population was calculated as a percentage of apoptotic cells labeled only with annexin V-FITC conjugated (green), necrotic cells labeled only as PI (red), and late apoptotic/necrotic cells (green and red).

[2] = Parallel artificial membrane permeability assay (PAMPA); type: in vitro ADME
Method: The parallel artificial membrane permeability assay (PAMPA) was performed using a 96-well pre-coated PAMPA plate system (Corning, Bedford, MA, USA). Solutions of test compounds and controls [metoprolol (Sigma-Aldrich, St. Louis, MO, USA) and nadolol (Sigma-Aldrich, St. Louis, MO, USA)] were prepared by diluting 10 mM stock solutions in DMSO with phosphate-buffered saline (PBS) at pH 6.5 to obtain a final concentration of 10 μM (final DMSO concentration ≤ 1%). The donor compartment was loaded with 300 μL of the prepared compound solutions, while the acceptor compartment received 200 μL of PBS pH 7.4. The plate was then assembled, and the system was incubated at 37 °C, with shaking at 100 rpm for 5 h. Samples of the initial donor solution (T0) were collected (10 μL) and transferred to an analysis plate. A quenching solution [10% water and 90% methanol: acetonitrile (50:50) + 50 nM tolbutamide (Sigma-Aldrich, St. Louis, MO, USA) as internal standard] was added (300 μL), along with 60 μL of PBS buffer pH 6.5. The analysis plate was stored at −20 °C. At the end of the incubation period, samples were collected from the donor and acceptor compartments and added to the analysis plate, following the same quenching procedure. The final concentrations of the compounds in the donor, acceptor, and T0 wells were quantified by an LCMS-8045 system (Shimazu, Kyoto, Japan). […]

SCC-25 cells [3] = test: Microscopy of cells after incubation with compound; type: cell-based, human; details: 24 h of incubation, 9.45 μM, SCC-25 vs NOK-si

permeability class [2]: high passive permeability
Papp at 5 h, 10 μM ([2]; donor pH 6.5, acceptor pH 7.4, 5 h, 37 °C, read-out: PAMPA (Mean Pe)): 17.5 ×10⁻⁶ cm/s
SMILES: COc1cccc(C(=O)/C=C/c2cccc(B(O)O)c2)c1 [Compound 5, (E)-(3-(3-(3-methoxyphenyl)-3-oxoprop-1-en-1-yl)phenyl)boronic acid]
NOK-si IC50 (NOK-si cells): 58.9 ± 10.63 µM
CC50 (NOK-si cells; Keratinocyte, read-out: NOK-si IC50): 58.9 µM
IC50 (Detroit-562 cells; Homo sapiens, MTT, 24 h incubation, Detroit-562 metastatic pharyngeal cancer model): 33.1 ± 5.1 µM
SI against the metastatic cell line (NOK-si vs Detroit-562) (Detroit-562 cells; selectivity index): greater than 1.7
viability at 44.3 µM (SCC-25 cells [1]; Homo sapiens, read-out: proportion of viable cells): < 5%
type of cell death (SCC-25 cells [1]; 22.1 μM and 9.45 μM): necrosis; also recorded: predominantly induces necrotic cell death
morphological alterations (SCC-25 cells [3]): morphological alterations suggesting cell death features
